Common to all, as to format: cell-based, human
The subject of experiment [1] is HepG2 (hepatocellular carcinoma) cell line. Nature of the experiment: CellTiter-Glo luminescent cell viability assay, HepG2. Particulars: Homo sapiens; for EC50: HepG2 cell line, 72 h incubation, CellTiter-Glo, read-out: EC50, growth inhibition of HepG2; for viability at 4 µM / viability at 10 µM: HepG2, HepG, 72 h; for viability at 4 µM: compound at 4 μM; for viability at 10 µM: compound at 10 μM. The procedure, abridged:
(§1)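 72 h compound exposure, 37 °C, 5% CO2, 10% FBS medium; ATP luminescence read after 30 min RT equilibration. Viability as % of H2O/DMSO diluent control; EC50 = dose giving 50% of control signal. Duplicate points minimum.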
Background: Cellular ATP, detected with luciferase, serves as a proxy for viable cell number.

Experiment [2] concerns HCT-116 (colorectal carcinoma) cell line. Kind of experiment: CellTiter-Glo luminescent cell viability assay, HCT-116. To be noted: Homo sapiens; for EC50: HCT-116 cell line, 72 h incubation, CellTiter-Glo, read-out: EC50, growth inhibition of HCT-116; for viability at 4 µM: HCT-116, compound at 4 μM; for viability at 4 µM / viability at 10 µM: 72 h; for viability at 10 µM: HCT-116, compound at 10 μM. In outline:
(§2)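 In a 72 h viability assay, compound-treated cells were compared against matched H2O or DMSO diluent controls by luminescence, points in at least duplicate.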

Experiment [3] has as its system 786-O (renal adenocarcinoma) cell line. Nature of the experiment: CellTiter-Glo luminescent cell viability assay, 786-O. To be noted: Homo sapiens, 786-0; for EC50: 786-O cell line, 72 h incubation, CellTiter-Glo, read-out: EC50, growth inhibition of 786-O; for viability at 4 µM / viability at 10 µM: 786-O, 72 h; for viability at 4 µM: compound at 4 μM; for viability at 10 µM: compound at 10 μM. In outline:
as §2

In experiment [4] the test system is MOLM-14 (acute myeloid leukemia) cell line. Nature of the experiment: CellTiter-Glo luminescent cell viability assay, MOLM-14. Particulars: Homo sapiens; for EC50: MOLM-14 cell line, 72 h incubation, CellTiter-Glo, read-out: EC50, growth inhibition of MOLM-14; for viability at 4 µM: MOLM-14, compound at 4 μM; for viability at 4 µM / viability at 10 µM: 72 h; for viability at 10 µM: MOLM-14, compound at 10 μM. The procedure, abridged: as §1

Experiment [5] has as its system Huh7 (hepatocellular carcinoma) cell line. Nature of the experiment: CellTiter-Glo luminescent cell viability assay, Huh7. Particulars: Homo sapiens, Huh-7; for EC50: Huh7 cell line, 72 h incubation, CellTiter-Glo, read-out: EC50, growth inhibition of Huh7; for viability at 4 µM: Huh7, compound at 4 μM; for viability at 4 µM / viability at 10 µM: 72 h; for viability at 10 µM: Huh7, compound at 10 μM. The procedure, abridged:
as §1

For experiment [6], the system named is A375 (malignant melanoma) cell line. Kind of experiment: CellTiter-Glo luminescent cell viability assay, A375. Particulars: Homo sapiens, A-375; for EC50: A375 cell line, 72 h incubation, CellTiter-Glo, read-out: EC50, growth inhibition of A375; for viability at 4 µM: A375, compound at 4 μM; for viability at 4 µM / viability at 10 µM: 72 h; for viability at 10 µM: A375, compound at 10 μM. In outline: as §2

Where a name gives a salt, the structure may show the parent alone.

The results in this text go back to patent publication US10577362B2, “Substituted 2, 4-diamino-quinoline derivatives for use in the treatment of proliferative diseases” (GENOSCIENCE PHARMA, priority 2016, dated 2020).

As a reminder, the EC50 is the concentration giving half of the maximal effect. In general, viability refers to a read-out of living cells in per cent, often relative to untreated cells.

In the case of `Cc1cc(F)c2nc(NCc3ccc(Cl)cc3)cc(N3CCC(NC(C)(C)C)CC3)c2c1` [Compound 568, 2-(4-chlorobenzylamino)-4-[4-(tert-butylamino)piperidin-1-yl]-6-methyl-8-fluoroquinoline], the EC50 in experiment [1] is 0.5 to 5 µM; in experiment [2], 0.5 to 5 µM; in experiment [3], 0.5 to 5 µM; in experiment [4], 0.5 to 5 µM; in experiment [5] it was 5 to 10 µM; in experiment [6], 0.5 to 5 µM.
For the molecule `N#Cc1c(NCc2ccc(Cl)cc2)nc2ccccc2c1N1CCC(Oc2ccc(Cl)cc2)CC1` [Compound 3226CN, 2-(4-chlorobenzylamino)-3-cyano-4-[4-(4-chlorophenoxy)piperidin-1-yl]quinoline], the viability at 4 µM in experiment [1] is 94%; in experiment [2] it was 96.8%; in experiment [3], 96%; in experiment [4], 101%; in experiment [5], 117%; in experiment [6], 97.8%. Besides, the viability at 10 µM in experiment [1] amounted to 82.8%; in experiment [2], 86.8%; in experiment [3], 89.8%; in experiment [4], 97.8%; in experiment [5], 109%; in experiment [6] it was 94.1%.
In the case of `N#Cc1c(NCc2ccc(Cl)cc2)nc2ccccc2c1N1CCC(Oc2ccncc2)C1` (centres unmarked) [Compound 3344CN, 2-(4-chlorobenzylamino)-3-cyano-4-{3-[(pyridin-4-yl)oxy]pyrrolidin-1-yl}quinoline], the viability at 4 µM in experiment [1] worked out at 94.1%; in experiment [2], 91.6%; in experiment [3], 81.9%; in experiment [4], 103%; in experiment [5] it was 50.2%; in experiment [6] it was 83.7%. Moreover, the viability at 10 µM came to 62.7% in experiment [1]; 48% in experiment [2]; 52.6% in experiment [3]; 57.8% in experiment [4]; 40.1% in experiment [5]; 60.3% in experiment [6].
Turning to `CC(C)(C)NC1CCN(c2c(C#N)c(Nc3ccc(OC(F)(F)F)cc3)nc3ccccc23)CC1` [Compound 3266CN, 2-[4-(trifluoromethyloxy)phenylamino]-3-cyano-4-[4-(tert-butylamino)piperidin-1-yl]quinoline], the viability at 4 µM in experiment [1] was found to be 60.6%; in experiment [2], 17.7%; in experiment [3] it was 28.1%; in experiment [4], 91.4%; in experiment [5], 78%; in experiment [6], 48.1%. Also, the viability at 10 µM is 24.9% in experiment [1]; 4.7% in experiment [2]; 3.8% in experiment [3]; 50.3% in experiment [4]; 49.1% in experiment [5]; 21.1% in experiment [6].
On to `Clc1ccc(CNc2cc(N3CC[C@@H](Oc4ccccc4)C3)c3ccccc3n2)cc1` [Compound 3012, (3R) 2-(4-chlorobenzylamino)-4-[3-(phenoxy)pyrrolidin-1-yl]quinoline hydrochloride], for which the EC50 in experiment [1], in experiment [2], in experiment [3], in experiment [4], in experiment [5] and in experiment [6] was 0.5 to 5 µM throughout.
Regarding `Cc1nccnc1OC1CCN(c2c(C#N)c(NCc3ccc(Cl)cc3)nc3ccccc23)CC1` [Compound 2970CN, 2-(4-chlorobenzylamino)-3-cyano-4-{4-[(3-methylpyrazin-2-yl)oxy]piperidin-1-yl}quinoline], the viability at 4 µM in experiment [1] came to 87.8%; in experiment [2] it was 70.5%; in experiment [3], 89.4%; in experiment [4] it was 92%; in experiment [5], 63.7%; in experiment [6], 91.9%. In addition, the viability at 10 µM turned out to be 63.3% in experiment [1]; 47% in experiment [2]; 79.8% in experiment [3]; 61.2% in experiment [4]; 53.4% in experiment [5]; 80.8% in experiment [6].
Consider `N#Cc1c(NCc2ccc(Cl)cc2)nc2ccccc2c1N1CCCC(Oc2cccc(F)c2)C1` (centres unmarked) [Compound 3240CN, 2-(4-chlorobenzylamino)-3-cyano-4-[3-(3-fluorophenoxy)piperidin-1-yl]quinoline], for which the viability at 4 µM in experiment [1] came to 97%; in experiment [2], 99.4%; in experiment [3], 98.2%; in experiment [4] it was 106%; in experiment [5], 123%; in experiment [6] it was 95.6%. Moreover, the viability at 10 µM in experiment [2] came out at 95.8%; in experiment [3], 94.5%; in experiment [4] it was 113%; in experiment [5] it was 113%; in experiment [6] it was 94.9%.
Consider `Cc1ccc(Nc2nc3ccccc3c(N3CCC(NC(C)(C)C)CC3)c2C#N)cc1Nc1nccc(C(F)(F)F)n1` [Compound 538CN, 2-[3-(4-trifluoromethylpyrimidin-2-ylamino)-4-methyl-phenylamino]-3-cyano-4-(4-tert-butylaminopiperidin-1-yl)-quinoline], for which the EC50 in experiment [1] is 0.5 to 5 µM; in experiment [2], 0.5 to 5 µM; in experiment [3] it was 5 to 10 µM; in experiment [4] it was 5 to 10 µM; in experiment [5], 5 to 10 µM; in experiment [6] it was 0.5 to 5 µM.
With `N#Cc1c(NCc2ccc(Cl)cc2)nc2ccccc2c1N1CCC(Oc2ccc(F)cc2)CC1` [Compound 2942CN, 2-(4-chlorobenzylamino)-3-cyano-4-[4-(4-fluorophenoxy)piperidin-1-yl]quinoline], the viability at 4 µM in experiment [1] was found to be 99.1%; in experiment [2], 91%; in experiment [3] it was 87.7%; in experiment [4], 98.2%; in experiment [5] it was 94.3%; in experiment [6] it was 101%. Further, the viability at 10 µM in experiment [1] is 75.3%; in experiment [2], 75.1%; in experiment [3], 81.3%; in experiment [4], 88.1%; in experiment [5], 87.9%; in experiment [6], 94.9%.
Consider `Clc1ccc(CNc2cc(N3CC(N4CCCC4)C3)c3ccccc3n2)cc1` [Compound 116, 2-(4-chlorobenzylamino)-4-[3-(pyrrolidin-1-yl)azetidin-1-yl]quinoline hydrochloride], for which the EC50 in experiment [1], in experiment [2], in experiment [3], in experiment [4], in experiment [5] and in experiment [6] was 0.5 to 5 µM throughout.
In the case of `Cc1ccnc(Nc2ccc(Nc3nc4ccccc4c(N4CCC(NC(C)(C)C)CC4)c3C#N)cc2C)n1` [Compound 500CN, 2-[4-(4-methyl-2-pyrimidinamino)-3-methyl-phenylamino]-3-cyano-4-(4-tert-butylaminopiperidin-1-yl)-quinoline], the EC50 in experiment [1] was in the range of 5 to 10 µM; in experiment [2], 0.5 to 5 µM; in experiment [3], 5 to 10 µM; in experiment [4], 5 to 10 µM; in experiment [5], 5 to 10 µM; in experiment [6] it was 5 to 10 µM.
As to `O[C@H]1CCN(c2cc(NCc3ccc(Cl)cc3)nc3ccccc23)C1` [Compound 3060, (3S) 2-(4-chlorobenzylamino)-4-(3-hydroxypyrrolidin-1-yl)-quinoline hydrochloride], the EC50 was in the range of 0.5 to 5 µM in experiment [1]; 0.5 to 5 µM in experiment [2]; 5 to 10 µM in experiment [3]; 0.5 to 5 µM in experiment [4]; 0.5 to 5 µM in experiment [5]; 0.5 to 5 µM in experiment [6].
Regarding `CC(C)(C)NC(=O)C1CCN(c2cc(NCc3ccc(Cl)cc3)nc3ccccc23)CC1` [Compound 1604, 2-(4-chlorobenzylamino)-4-[4-(tert-butylaminocarbonyl)-piperidin-1-yl]-quinoline hydrochloride], the EC50 in experiment [1] was 0.5 to 5 µM; in experiment [2], 5 to 10 µM; in experiment [3] it was 5 to 10 µM; in experiment [4], 5 to 10 µM; in experiment [5], 0.5 to 5 µM; in experiment [6] it was 5 to 10 µM.
